Test results reported in PMC6419571, “Discovery and lead optimisation of a potent, selective and orally bioavailable RARβ agonist for the potential treatment of nerve injury” (Bioorganic & Medicinal Chemistry Letters, 2019).
Marks after values point to notes of the source that are not given here.

Experiments:
RARβ = biological target: T1, RARβ (Homo sapiens, UniProt P10826); assay: Transactivation against the human RAR ligand-binding domains; assay type: cell-based
T1 construct: expressed in transfected cells
T1 sequence (P10826 183-417 limits assumed): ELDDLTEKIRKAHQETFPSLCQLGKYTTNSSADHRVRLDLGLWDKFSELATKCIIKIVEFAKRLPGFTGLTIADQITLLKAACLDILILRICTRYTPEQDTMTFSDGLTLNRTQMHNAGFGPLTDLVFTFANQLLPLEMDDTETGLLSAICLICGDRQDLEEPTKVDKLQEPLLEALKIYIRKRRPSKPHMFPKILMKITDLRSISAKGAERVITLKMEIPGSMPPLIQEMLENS
From the text: The more drug-like template present in 10 translates into a good in vitro and in vivo profile for this RARβ agonist (Table 5).

Cyp450 1A2 = biological target: T2, Cyp450 1A2 (Homo sapiens, UniProt P05177); assay: Cyp450 inhibition, 1A2; assay type: in vitro ADME; conditions: isoform 1A2
T2 sequence (P05177 1-516): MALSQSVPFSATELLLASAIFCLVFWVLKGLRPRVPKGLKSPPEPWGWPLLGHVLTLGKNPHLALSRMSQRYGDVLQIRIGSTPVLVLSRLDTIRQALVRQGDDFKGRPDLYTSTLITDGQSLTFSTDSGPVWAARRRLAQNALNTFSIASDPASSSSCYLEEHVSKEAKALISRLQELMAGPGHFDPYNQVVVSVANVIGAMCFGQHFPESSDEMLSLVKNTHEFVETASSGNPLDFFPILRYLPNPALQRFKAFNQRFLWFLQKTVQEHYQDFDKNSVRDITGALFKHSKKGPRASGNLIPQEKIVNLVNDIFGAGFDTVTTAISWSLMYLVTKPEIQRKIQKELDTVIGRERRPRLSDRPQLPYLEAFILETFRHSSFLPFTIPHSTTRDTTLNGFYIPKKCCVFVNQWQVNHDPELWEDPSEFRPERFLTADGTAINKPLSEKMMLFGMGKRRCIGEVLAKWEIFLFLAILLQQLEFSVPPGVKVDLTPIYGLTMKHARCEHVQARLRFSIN

[1] = Human microsomal stability (Clint); assay type: in vitro ADME
Pharmacokinetics in rat = assay type: in vivo; design: Volume distribution ss: unit not given here
Pharmacokinetics in dog = assay type: in vivo; design: Volume distribution ss: unit not given here
HEPG2 cell = HEPG2 cell toxicity assay; assay type: cell-based; conditions: highest concentration tested 50 μM
bacterial = assay: Bacterial cytotoxicity tests; assay type: cell-based; conditions: up to 100 μM
three bacterial strains = assay type: cell-based
CHO-K1 cells = assay: In vitro micronucleus test; assay type: cell-based; conditions: presence and absence of S9
From the text: Similar, negative results were obtained in an in vitro micronucleus test in CHO-K1 cells, in both the presence and absence of S9.

Cc1ccc(C)c2oc(-c3nc(-c4ccc(C(=O)O)cc4)no3)cc12 [Compound 10, 4-(5-(4,7-dimethylbenzofuran-2-yl)-1,2,4-oxadiazol-3-yl)benzoic acid]
fold selectivity for RARβ over RARα (RARβ): 23 fold | fold selectivity for RARβ over RARγ (RARβ): 5 fold | EC50 (RARβ; read-out: RARβ potency EC50): 2.05 nM | IC50 (Cyp450 1A2): > 25000 nM | stability in human microsomes (in words) [1]: very high stability | microsomal CLint ([1]; human microsomes, 37 °C, NADPH, 45 min, mean of 5 experiments): < 1 µL/min/mg | clearance (Pharmacokinetics in rat; blood, rat, iv dose 0.5 mg/kg): 0.222 L/h/kg | Tmax (Pharmacokinetics in rat; in vivo, rat, oral doses of 1, 3 and 10 mg/kg): 1.7 h | t1/2 (Pharmacokinetics in rat; rat): 1.4 h | Volume distribution ss (Pharmacokinetics in rat; rat, iv dose 0.5 mg/kg): 0.41 | Fraction absorbed (Pharmacokinetics in rat; rat, mean of 1, 3 and 10 mg/kg oral in comparison to iv 0.5 mg/kg): 80 ^b % | oral bioavailability (Pharmacokinetics in rat; rats): > 40% | CNS penetration: brain tissue compared to plasma (Pharmacokinetics in rat; rats, 8 h after dosing orally): nearly equivalent amounts detected in brain tissue when compared to plasma | t1/2 (Pharmacokinetics in dog): 2.5 h | clearance (Pharmacokinetics in dog; blood, iv dose 0.5 mg/kg): 0.066 L/h/kg | bioavailability (Pharmacokinetics in dog; in vivo, po, 3 mg/kg, dogs): > 40% | Volume distribution ss (Pharmacokinetics in dog; iv dose 0.5 mg/kg): 0.23 | Fraction absorbed (Pharmacokinetics in dog; oral 3 mg/kg vs iv 0.5 mg/kg): 45% | Tmax (Pharmacokinetics in dog; oral dose 3 mg/kg): 1.0 h | HEPG2 cell toxicity alerts (HEPG2 cell): completely devoid of alerts | bacterial cytotoxicity (bacterial): inactive | Ames test result (three bacterial strains): inactive | in vitro micronucleus test result (CHO-K1 cells): negative
